Consider 24 compounds from patent US9580435B2, “Pyrrolo[2,3-D]pyrimidine derivatives as CB2 receptor agonists” (priority 2013, dated 2017).

By EC50 is commonly meant the concentration giving half of the maximal effect.

One test concerns the target T1, human CB2 receptors (Homo sapiens, UniProt P34972).
T1 construct: expressed in transfected cells; host or cells: CHO cells
Kind of test: functional cAMP assay, CHO cells expressing human CB2 receptors. It is filed as cell-based. The method, then:
(§1) CHO cells expressing human CB1 or CB2 receptors are seeded 17-24 hours prior to the experiment 50.000 cells per well in a black 96 well plate with flat clear bottom (Corning Costar #3904) in DMEM (Invitrogen No. 31331), lx HT supplement, with 10% fetal calf serum and incubated at 5% CO2 and 37° C. in a humidified incubator. The growth medium was exchanged with Krebs Ringer Bicarbonate buffer with 1 mM IBMX and incubated at 30° C. for 30 min. Compounds were added to a final assay volume of 100 μl and incubated for 30 min at 30° C. Using the cAMP-Nano-TRF detection kit the assay (Roche Diagnostics) was stopped by the addition of 50 μl lysis reagent (Tris, NaCl, 1.5% Triton X100, 2.5% NP40, 10% NaN3) and 50 μl detection solutions (20 μM mAb Alexa700-cAMP 1:1, and 48 μM Ruthenium-2-AHA-cAMP) and shaken for 2 h at room temperature. The time-resolved energy transfer is measured by a TRF reader (Evotec Technologies GmbH), equipped with a ND:YAG laser as excitation source. The plate is measured twice with the excitation at 355 nm and at the emission with a delay of 100 ns and a gate of 100 ns, total exposure time 10 s at 730 (bandwidth 30 nm) or 645 nm (bandwidth 75 nm), respectively. The FRET signal is calculated as follows: FRET=T730-Alexa730-P(T645-B645) with P=Ru730-B730/Ru645-B645, where T730 is the test well measured at 730 nM, T645 is the test well measured at 645 nm, B730 and B645 are the buffer controls at 730 nm and 645 nm, respectively. cAMP content is determined from the function of a standard curve spanning from 10 μM to 0.13 nM cAMP.
(§2) EC50 values were determined using Activity Base analysis (ID Business Solution, Limited). The EC50 values for a wide range of cannabinoid agonists generated from this assay were in agreement with the values published in the scientific literature.
On the technique in general: cAMP levels reflect the balance of adenylyl cyclase and phosphodiesterase activity.

For another test, the target named is T2, human CB1 receptors (Homo sapiens, UniProt P21554).
T2 construct: expressed in transfected cells; host or cells: CHO cells
T2 sequence (P21554 whole entry): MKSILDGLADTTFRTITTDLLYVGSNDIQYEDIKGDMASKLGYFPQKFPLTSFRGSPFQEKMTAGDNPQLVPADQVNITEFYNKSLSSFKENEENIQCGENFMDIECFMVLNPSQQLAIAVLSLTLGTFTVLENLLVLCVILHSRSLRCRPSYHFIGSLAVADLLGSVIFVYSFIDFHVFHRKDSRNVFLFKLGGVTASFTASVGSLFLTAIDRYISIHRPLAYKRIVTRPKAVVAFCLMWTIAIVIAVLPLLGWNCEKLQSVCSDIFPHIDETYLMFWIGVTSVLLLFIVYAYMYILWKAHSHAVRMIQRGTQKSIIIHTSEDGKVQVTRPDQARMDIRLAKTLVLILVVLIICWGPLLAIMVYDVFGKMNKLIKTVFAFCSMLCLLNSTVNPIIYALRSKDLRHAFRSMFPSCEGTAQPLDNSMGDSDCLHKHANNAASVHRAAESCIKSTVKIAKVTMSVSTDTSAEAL
Kind of test: functional cAMP assay, CHO cells expressing human CB1 receptors. It is filed as cell-based. The procedure:
as §1, §2

[1] abbreviates: human EC50, functional cAMP assay, CHO cells expressing human CB2, read-out: EC50:CB2.

Where two headings read alike, the source gives them in different places.

T1 sequence (P34972 whole entry): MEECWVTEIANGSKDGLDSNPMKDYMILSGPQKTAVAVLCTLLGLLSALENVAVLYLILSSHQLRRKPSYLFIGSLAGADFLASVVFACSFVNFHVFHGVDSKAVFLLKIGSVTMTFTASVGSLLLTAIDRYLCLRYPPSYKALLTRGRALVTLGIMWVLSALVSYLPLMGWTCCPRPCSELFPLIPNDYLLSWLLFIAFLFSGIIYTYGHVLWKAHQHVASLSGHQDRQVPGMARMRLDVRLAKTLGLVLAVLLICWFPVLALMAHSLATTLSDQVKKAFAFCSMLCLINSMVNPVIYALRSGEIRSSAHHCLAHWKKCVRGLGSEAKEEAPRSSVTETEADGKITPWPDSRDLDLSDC

As to `Cc1noc(Cn2ccc3c(N4CCC(O)C4)nc(C(C)(C)C)nc32)n1` (stereo not drawn) [Example 31, 1-[2-tert-butyl-7-[(3-methyl-1,2,4-oxadiazol-5-yl)methyl]pyrrolo[2,3-d]pyrimidin-4-yl]pyrrolidin-3-ol], the values for the EC50 at human CB2 receptors (setting [1]) and at human CB1 receptors were 316 nM and > 10000 nM, respectively.

Regarding `CC(C)(C)c1nc(N2CCC(O)C2)c2ccn(Cc3ncccc3Cl)c2n1` (stereo not drawn) [Example 30, 1-[2-tert-butyl-7-[(3-chloropyridin-2-yl)methyl]pyrrolo[2,3-d]pyrimidin-4-yl]pyrrolidin-3-ol], the EC50 on human CB2 receptors is 8.4 nM; on human CB1 receptors it was > 10000 nM.

Regarding `CC(C)(C)c1nc(N2CC[C@H](O)C2)c2ccn(Cc3ncccc3Cl)c2n1` [Example 47, (3S)-1-[2-tert-butyl-7-[(3-chloropyridin-2-yl)methyl]pyrrolo[2,3-d]pyrimidin-4-yl]pyrrolidin-3-ol], the EC50 was 5.8 nM at human CB2 receptors and > 10000 nM on human CB1 receptors.

Take `CC(C)(C)c1nc(N2CC3(COC3)C2)c2ccn(Cc3ccccc3S(C)(=O)=O)c2n1` [Example 19, 6-[2-tert-butyl-7-[(2-methylsulfonylphenyl)methyl]pyrrolo[2,3-d]pyrimidin-4-yl]-2-oxa-6-azaspiro[3.3]heptane]: the EC50 on human CB2 receptors was 14.6 nM; on human CB1 receptors, > 10000 nM.

As to `CC(C)(C)c1nc(N2CCC(F)(F)C2)c2ccn(Cc3ncccc3Cl)c2n1` [Example 7, 2-tert-butyl-7-[(3-chloropyridin-2-yl)methyl]-4-(3,3-difluoropyrrolidin-1-yl)pyrrolo[2,3-d]pyrimidine], the EC50 was 4.2 nM at human CB2 receptors and > 10000 nM at human CB1 receptors.

For the compound `Cn1nnnc1Cn1ccc2c(N3CCC(F)(F)C3)nc(C(C)(C)C)nc21` [Example 12, 2-tert-butyl-4-(3,3-difluoropyrrolidin-1-yl)-7-[(1-methyltetrazol-5-yl)methyl]pyrrolo[2,3-d]pyrimidine], the EC50 on human CB2 receptors is 14 nM; on human CB1 receptors it was > 10000 nM.

As to `CC(C)(C)c1nc(N2CCC(F)(F)C2)c2ccn(Cc3ccccc3C(F)(F)F)c2n1` [Example 4, 2-tert-butyl-4-(3,3-difluoropyrrolidin-1-yl)-7-[[2-(trifluoromethyl)phenyl]methyl]pyrrolo[2,3-d]pyrimidine], the figures for the EC50 at human CB2 receptors and at human CB1 receptors were 7.4 nM and > 10000 nM, respectively.

`CC(C)(C)c1nc(N2CCC(F)(F)C2)c2ccn(Cc3ccccc3Cl)c2n1` [Example 1, 2-tert-butyl-7-[(2-chlorophenyl)methyl]-4-(3,3-difluoropyrrolidin-1-yl)pyrrolo[2,3-d]pyrimidine]: the EC50 on human CB2 receptors is 10.1 nM; on human CB1 receptors, > 10000 nM.

With `CC(C)(C)c1nc(N2CCC(O)C2)c2ccn(Cc3ccccc3C(F)(F)F)c2n1` (stereo not drawn) [Example 27, 1-[2-tert-butyl-7-[[2-(trifluoromethyl)phenyl]methyl]pyrrolo[2,3-d]pyrimidin-4-yl]pyrrolidin-3-ol], the EC50 at human CB2 receptors is 6.9 nM; on human CB1 receptors it was > 10000 nM.

In the case of `Cc1nonc1Cn1ccc2c(N3CCC(O)C3)nc(C(C)(C)C)nc21` (stereo not drawn) [Example 32, 1-[2-tert-butyl-7-[(4-methyl-1,2,5-oxadiazol-3-yl)methyl]pyrrolo[2,3-d]pyrimidin-4-yl]pyrrolidin-3-ol], the EC50 on human CB2 receptors is 18.9 nM; on human CB1 receptors, > 10000 nM.

In the case of `CC(C)(C)c1nc(N2CC3(COC3)C2)c2ccn(Cc3cccnc3Cl)c2n1` [Example 20, 6-[2-tert-butyl-7-[(2-chloropyridin-3-yl)methyl]pyrrolo[2,3-d]pyrimidin-4-yl]-2-oxa-6-azaspiro[3.3]heptane], the EC50 is 24.2 nM at human CB2 receptors and > 10000 nM on human CB1 receptors.

For the compound `CC(=O)OC1CCN(c2nc(C(C)(C)C)nc3c2ccn3Cc2nnnn2C)C1` (stereo not drawn) [Example 35, [1-[2-tert-butyl-7-[(1-methyltetrazol-5-yl)methyl]pyrrolo[2,3-d]pyrimidin-4-yl]pyrrolidin-3-yl]acetate], the figures for the EC50 on human CB2 receptors (setting [1]) and at human CB1 receptors were 278 nM and > 10000 nM, respectively.

As for `CC(C)(C)c1nc(N2CCC(O)C2)c2ccn(Cc3cccc(Cl)c3Cl)c2n1` (stereo not drawn) [Example 28, 1-[2-tert-butyl-7-[(2,3-dichlorophenyl)methyl]pyrrolo[2,3-d]pyrimidin-4-yl]pyrrolidin-3-ol], the EC50 was 14 nM on human CB2 receptors and > 10000 nM at human CB1 receptors.

With `CC(C)(C)c1nc(N2CCC(F)(F)C2)c2ccn(Cc3nnnn3C3CC3)c2n1` [Example 13, 2-tert-butyl-7-[(1-cyclopropyltetrazol-5-yl)methyl]-4-(3,3-difluoropyrrolidin-1-yl)pyrrolo[2,3-d]pyrimidine], the EC50 is 23 nM on human CB2 receptors and > 10000 nM on human CB1 receptors.

`Cn1nnnc1Cn1ccc2c(N3CC4(COC4)C3)nc(C(C)(C)C)nc21` [Example 50, 6-[2-tert-butyl-7-[(1-methyltetrazol-5-yl)methyl]pyrrolo[2,3-d]pyrimidin-4-yl]-2-oxa-6-azaspiro[3.3]heptane]: the EC50 on human CB2 receptors (setting [1]) is 531 nM; at human CB1 receptors it was > 10000 nM.

Take `CC(C)(C)c1nc(N2CCC(O)C2)c2ccn(Cc3c[nH]nc3C(F)(F)F)c2n1` (stereo not drawn) [Example 40, 1-[2-tert-butyl-7-[[3-(trifluoromethyl)-1H-pyrazol-4-yl]methyl]pyrrolo[2,3-d]pyrimidin-4-yl]pyrrolidin-3-ol]: the values for the EC50 on human CB2 receptors and on human CB1 receptors were 35.6 nM and > 10000 nM, respectively.

`CC(C)(C)c1nc(N2CCC(O)C2)c2ccn([C@@H]3CCOC3)c2n1` (stereo partly drawn) [Example 39, 1-[2-tert-butyl-7-[(3R)-oxolan-3-yl]pyrrolo[2,3-d]pyrimidin-4-yl]pyrrolidin-3-ol]: the EC50 is 35 nM at human CB2 receptors and > 10000 nM at human CB1 receptors.

Regarding `CC(C)(C)c1nc(N2CC3(COC3)C2)c2ccn(Cc3ncccc3Cl)c2n1` [Example 49, 6-[2-tert-butyl-7-[(3-chloropyridin-2-yl)methyl]pyrrolo[2,3-d]pyrimidin-4-yl]-2-oxa-6-azaspiro[3.3]heptane], the EC50 on human CB2 receptors is 10.7 nM; at human CB1 receptors, 307 nM.

Take `CC(C)(C)c1nc(N2CC3(COC3)C2)c2ccn([C@H]3CCOC3)c2n1` [Example 16, 6-[2-tert-butyl-7-[(3S)-oxolan-3-yl]pyrrolo[2,3-d]pyrimidin-4-yl]-2-oxa-6-azaspiro[3.3]heptane]: the EC50 on human CB2 receptors was 78.7 nM; at human CB1 receptors it was > 10000 nM.

Take `CC(C)(C)c1nc(N2CC[C@H](O)C2)c2ccn(Cc3ccccc3S(C)(=O)=O)c2n1` [Example 45, (3S)-1-[2-tert-butyl-7-[(2-methylsulfonylphenyl)methyl]pyrrolo[2,3-d]pyrimidin-4-yl]pyrrolidin-3-ol]: the figures for the EC50 on human CB2 receptors and on human CB1 receptors were 4.2 nM and > 10000 nM, respectively.

Regarding `CC(C)(C)c1nc(N2CCC(O)C2)c2ccn(Cc3ccc(F)cc3Cl)c2n1` (stereo not drawn) [Example 25, 1-[2-tert-butyl-7-[(2-chloro-4-fluorophenyl)methyl]pyrrolo[2,3-d]pyrimidin-4-yl]pyrrolidin-3-ol], the EC50 on human CB2 receptors worked out at 10.2 nM; at human CB1 receptors, 895 nM.

For `CC(C)(C)c1nc(N2CC[C@H](O)C2)c2ccn(Cc3cccnc3Cl)c2n1` [Example 46, (3S)-1-[2-tert-butyl-7-[(2-chloropyridin-3-yl)methyl]pyrrolo[2,3-d]pyrimidin-4-yl]pyrrolidin-3-ol], the EC50 at human CB2 receptors is 5.1 nM; on human CB1 receptors, > 10000 nM.

As to `CC(C)(C)c1nc(N2CC[C@H](O)C2)c2ccn(Cc3ccccc3C(F)(F)F)c2n1` [Example 44, (3S)-1-[2-tert-butyl-7-[[2-(trifluoromethyl)phenyl]methyl]pyrrolo[2,3-d]pyrimidin-4-yl]pyrrolidin-3-ol], the EC50 on human CB2 receptors is 3.3 nM; at human CB1 receptors, > 10000 nM.

As to `Cc1noc(Cn2ccc3c(N4CC5(COC5)C4)nc(C(C)(C)C)nc32)n1` [Example 15, 6-[2-tert-butyl-7-[(3-methyl-1,2,4-oxadiazol-5-yl)methyl]pyrrolo[2,3-d]pyrimidin-4-yl]-2-oxa-6-azaspiro[3.3]heptane], the EC50 on human CB2 receptors (setting [1]) was 747 nM; on human CB1 receptors it was > 10000 nM.
